From article PMC12770474 (Nature Communications, 2025)

Assays:
CTSK = molecular target: T1, CTSK (Homo sapiens, UniProt P43235); experiment: Zeta potential of the enzymolysis reaction mixture with and without CTSK; format: physicochemical; conditions: 64 μM peptide
T1 sequence (P43235 115-329): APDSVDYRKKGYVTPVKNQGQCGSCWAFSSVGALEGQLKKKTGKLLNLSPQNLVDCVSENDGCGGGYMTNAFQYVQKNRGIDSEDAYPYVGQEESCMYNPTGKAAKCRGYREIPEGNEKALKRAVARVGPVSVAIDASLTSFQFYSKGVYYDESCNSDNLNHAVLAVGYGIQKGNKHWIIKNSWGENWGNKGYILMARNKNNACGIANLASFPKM

[1] = TEM morphology of peptide assemblies in PBS; conditions: 64 μM in PBS pH 7.4, 8 h incubation
[2] = Zeta potential of peptide assemblies; format: physicochemical; conditions: self-assembled peptide, 64 μM, Zetasizer, n = 3
BMMs = experiment: CCK-8 cytotoxicity assay, BMMs; format: cell-based, mice; conditions: CCK-8, 24 h, different concentrations, n = 3
Dynamic light scattering = format: physicochemical; conditions: self-assembled nanoparticles, aqueous solution pH 7.4, 64 μM, Zetasizer
OCs formed by BMMs = experiment: TRAP staining of RANKL-induced OCs formed by BMMs; format: cell-based, mice; conditions: TRAP staining day 6, n = 5
OVX mice = conditions: mouse, in vivo
OCs = experiment: Tunel staining of OCs apoptosis; format: cell-based, mice; conditions: BGD 64 μM or ALD 500 μM, 24 h, n = 3

In the case of Bip-FFWKYK-GHPAAPQ-DDDDDD [BAD], the “zeta potential of reaction mixture, presence of CTSK / after cleavage” value (CTSK; MES buffer pH 5.5, with CTSK 800 ng/ml) was −9.5 mV, the “zeta potential of reaction mixture, absence of CTSK / before cleavage” value (CTSK; MES buffer pH 5.5, without CTSK) was −14.3 mV and the “morphology of assemblies (TEM)” value [1] was “dispersed, nearly spherical nanoparticles”. For the same compound, the Zeta potential [2] was −20.8 mV, the “cytotoxicity toward BMMs” value (BMMs) was “consistent cytocompatibility” and the “average size of nanoparticles (DLS)” value (Dynamic light scattering) was 36.6 nm. The “number of TRAP-positive OCs vs RANKL control” value (OCs formed by BMMs; peptide (64 μM) added on day 5 of RANKL induction) was “no significant effect”.
In the case of NCCCC(O)(P(=O)(O)O)P(=O)(O)O [ALD, Alendronate], the “micro-CT bone parameters (BMD, BV/TV, Tb.Th, Tb.N, Tb.Sp) vs OVX” value (OVX mice) was “significantly improved” and the “cells undergoing apoptosis (Tunel staining)” value (OCs) was “a large number of OCs and pre-OCs underwent apoptosis”.
For CCCN1CCN(c2ccc(C(=O)NC3(C(=O)NCC#N)CCCCC3)cc2)CC1 [Balicatib, reference compound], the “OCs formation, inhibitor alone” value (OCs formed by BMMs; 20 nM on day 5 of RANKL induction) was “did not inhibit OCs formation”.
In the case of Bip-FFWKYK-GHPGGPQ-NNNNNN [BGN], the Zeta potential [2] was −26.4 mV and the “cytotoxicity toward BMMs” value (BMMs) was “biocompatible”.
For Bip-FFWKYK-GHPGGPQ-KKKKKK [BGK], the Zeta potential [2] was “+11.2 mV” and the “cytotoxicity toward BMMs” value (BMMs) was “exhibited cytotoxicity at 32 μM”.
